Measurements as given in ChEMBL document CHEMBL1149226, “Inhibitors of hepatitis C virus NS3.4A protease. Part 3: P2 proline variants” (Bioorg Med Chem Lett, 2004).
Starred links: 1 amine or outer side, 2 acyl side, 3 side chain; linkers in the order of their positions; H or OH if unused. Non-standard residues stand in square brackets, D forms with d. Residues, ends and D or L forms follow the SMILES beside them. Groups on a side chain read outwards from the residue. *: point of attachment. Tetrahydroisoquinolin(2-yl) = c1ccc2c(c1)CCN(*)C2; Pro(3S-Et) = CC[C@H]1CCN[C@@H]1C(=O)O; X1 = CCC[C@H](N[*:1])C(=O)C(=O)[*:2]; Pyrazinecarbonyl = O=C(c1cnccn1)*; Hyp = O=C(O)[C@@H]1C[C@@H](O)CN1; CO = O=C([*:1])[*:2]

Experiments:
[1] = biological target: Hepatitis C virus serine protease, NS3/NS4A (Hepatitis C virus, UniProt D2K2A8+A3EZI9); test: (§1) Inhibitory activity against hepatitis C virus NS3.4A protease; format: protein-complex assay, Hepacivirus hominis
Hepatitis C virus serine protease, NS3/NS4A (Hepatitis C virus, UniProt D2K2A8+A3EZI9), sequence (D2K2A8 whole entry): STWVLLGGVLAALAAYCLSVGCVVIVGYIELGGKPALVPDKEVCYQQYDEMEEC
Hepatitis C virus serine protease, NS3/NS4A (Hepatitis C virus, UniProt D2K2A8+A3EZI9), sequence (A3EZI9 whole entry): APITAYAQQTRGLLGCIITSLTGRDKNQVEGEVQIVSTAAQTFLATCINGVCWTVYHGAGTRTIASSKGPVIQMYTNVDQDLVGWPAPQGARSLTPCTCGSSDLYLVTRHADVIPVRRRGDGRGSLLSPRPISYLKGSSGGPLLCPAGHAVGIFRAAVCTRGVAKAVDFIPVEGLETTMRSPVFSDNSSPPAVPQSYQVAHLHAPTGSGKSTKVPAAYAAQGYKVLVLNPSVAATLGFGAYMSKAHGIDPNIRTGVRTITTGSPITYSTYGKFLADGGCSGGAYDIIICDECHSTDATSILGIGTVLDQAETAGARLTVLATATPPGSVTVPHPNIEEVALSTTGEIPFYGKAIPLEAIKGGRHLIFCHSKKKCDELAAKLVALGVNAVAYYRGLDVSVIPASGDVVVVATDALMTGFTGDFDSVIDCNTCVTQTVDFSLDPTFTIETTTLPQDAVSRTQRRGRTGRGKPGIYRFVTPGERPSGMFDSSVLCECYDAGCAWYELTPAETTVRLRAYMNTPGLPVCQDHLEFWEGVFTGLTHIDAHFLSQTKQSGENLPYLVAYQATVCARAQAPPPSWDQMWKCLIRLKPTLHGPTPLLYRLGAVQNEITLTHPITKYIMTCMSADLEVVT

[2] = biological target: Hepatitis C virus serine protease, NS3/NS4A (Hepatitis C virus, UniProt A3EZI9+D2K2A8); test: as §1; format: protein-complex assay, Hepacivirus hominis
Hepatitis C virus serine protease, NS3/NS4A (Hepatitis C virus, UniProt A3EZI9+D2K2A8), sequence (D2K2A8 whole entry): as the sequence (D2K2A8 whole entry) above
Hepatitis C virus serine protease, NS3/NS4A (Hepatitis C virus, UniProt A3EZI9+D2K2A8), sequence (A3EZI9 whole entry): as the sequence (A3EZI9 whole entry) above

| Structure (SMILES) | Ki [1] | Ki [2] |
| --- | --- | --- |
| CCC[C@H](NC(=O)[C@@H]1[C@@H](C(=O)OC)CCN1C(=O)[C@@H](NC(=O)[C@@H](NC(=O)c1cnccn1)C(C)C)C(C)C)C(=O)C(=O)N[C@@H](Cc1ccccc1)C(=O)O | 180 nM |  |
| CCC[C@H](NC(=O)[C@@H]1[C@@H](CC)CCN1C(=O)[C@@H](NC(=O)[C@@H](NC(=O)c1cnccn1)C(C)C)C(C)C)C(=O)C(=O)N[C@@H](Cc1ccccc1)C(=O)O (Pyrazinecarbonyl-VV[Pro(3S-Et)][X1]F-OH) | 220 nM |  |
| CCC[C@H](NC(=O)[C@@H]1C[C@@H](OC(=O)N2CCc3ccccc3C2)CN1C(=O)[C@@H](NC(=O)[C@@H](NC(=O)c1cnccn1)C(C)C)C(C)C)C(=O)C(=O)N[C@@H](Cc1ccccc1)C(=O)O (Pyrazinecarbonyl-VV[Hyp]([CO-Tetrahydroisoquinolin(2-yl)])[X1]F-OH) | 20 nM |  |
| CCC[C@H]1CCN(C(=O)[C@@H](NC(=O)[C@@H](NC(=O)c2cnccn2)C(C)C)C(C)C)[C@@H]1C(=O)N[C@@H](CCC)C(=O)C(=O)N[C@@H](Cc1ccccc1)C(=O)O | 1200 nM |  |
| CC[C@H](NC(=O)[C@@H]1C[C@@H](OCc2ccccc2)CN1C(=O)[C@@H](NC(=O)[C@@H](NC(=O)c1cnccn1)C(C)C)C(C)C)C(=O)C(=O)N[C@@H](C)c1ccccc1 | 920 nM |  |
| CCC[C@H](NC(=O)[C@@H]1CCCN1C(=O)[C@@H](NC(=O)[C@@H](NC(=O)c1cnccn1)C1CCCCC1)C(C)(C)C)C(=O)C(=O)NC1CC1 |  | 1200 nM |
| CCC[C@H](NC(=O)[C@@H]1[C@@H](C(C)CC)CCN1C(=O)[C@@H](NC(=O)[C@@H](NC(=O)c1cnccn1)C(C)C)C(C)C)C(=O)C(=O)N[C@@H](Cc1ccccc1)C(=O)O (some centres undefined) | 120 nM |  |
| C=CC[C@H]1CCN(C(=O)[C@@H](NC(=O)[C@@H](NC(=O)c2cnccn2)C(C)C)C(C)C)[C@@H]1C(=O)N[C@@H](CCC)C(=O)C(=O)N[C@@H](Cc1ccccc1)C(=O)O | 210 nM |  |
| CC[C@H](NC(=O)[C@@H]1[C@@H](C)CCN1C(=O)[C@@H](NC(=O)[C@@H](NC(=O)c1cnccn1)C(C)C)C(C)C)C(=O)C(=O)N[C@@H](C)c1ccccc1 | 1400 nM |  |
